The values that follow are results of earlier work, collected in patent publication US20110008439A1, “DULOXETIN COMPOSITION” (priority 2006, published 2011).

For the series the following is noted: pH values less than 2.5.

In the case of `CNCC[C@H](Oc1cccc2ccccc12)c1cccs1` [Duloxetine, duloxetine], the Stability in solution entry was “unstable”.
